Source: patent US20070280915A1, “Combination Therapies Employing A Composition Comprising A Hmg Coa Reductase Inhibitor And A Vitamin B6 Related Compound” (priority 2003, published 2007)

Columns and labels:
Conditions in all cases: 0.0169 to […] tested, na = concentration-dependent inhibition not observed
[1] = biological target: CYP1A2 (Homo sapiens, UniProt P05177); assay: CYP1A2 inhibition assay (Supersomes, fluorescent metabolite, substrate CEC)
Source text: (§1) The CYP inhibition assays used microsomes (Supersomes®, Gentest Corp., Woburn, Mass.) prepared from insect cells, each expressing an individual CYP subtype (CYP1A2, CYP2A6, CYP2B6, CYP2C8, CYP2C9, CYP2C19, CYP2D6, CYP2E1 or CYP3A4) expressed from the corresponding human CYP cDNA using a baculovirus expression vector. The microsomes also incorporated supplemental cDNA-expressed human reductase and/or cytochrome b5, as these enzymes stimulate the activity of the CYPs, allowing for a reduction in the amount of enzyme required per reaction (Gentest Corp.). The assays monitored, via fluorescence detection, the formation of a fluorescent metabolite following incubation of the microsomes with a specific CYP substrate. […]
(§2) Eight inhibitor and test compound concentrations were tested using 3-fold serial dilutions. […] The amount of metabolic product formed was quantified by fluorescence detection in a fluorescence plate reader utilizing excitation and emission filters that had been optimized for the detection of each metabolite.
(§3) Data Analysis—The mean of the duplicate fluorescent signals in the presence and absence (vehicle control) of each compound was calculated and corrected for the background noise. […]

[2] = biological target: T1, CYP2E1 (Homo sapiens, UniProt P05181); assay: CYP2E1 inhibition assay (substrate MFC); format: in vitro ADME
T1 construct: purchased Gentest Corp; host or cells: insect cells (baculovirus)
T1 sequence (P05181 whole entry): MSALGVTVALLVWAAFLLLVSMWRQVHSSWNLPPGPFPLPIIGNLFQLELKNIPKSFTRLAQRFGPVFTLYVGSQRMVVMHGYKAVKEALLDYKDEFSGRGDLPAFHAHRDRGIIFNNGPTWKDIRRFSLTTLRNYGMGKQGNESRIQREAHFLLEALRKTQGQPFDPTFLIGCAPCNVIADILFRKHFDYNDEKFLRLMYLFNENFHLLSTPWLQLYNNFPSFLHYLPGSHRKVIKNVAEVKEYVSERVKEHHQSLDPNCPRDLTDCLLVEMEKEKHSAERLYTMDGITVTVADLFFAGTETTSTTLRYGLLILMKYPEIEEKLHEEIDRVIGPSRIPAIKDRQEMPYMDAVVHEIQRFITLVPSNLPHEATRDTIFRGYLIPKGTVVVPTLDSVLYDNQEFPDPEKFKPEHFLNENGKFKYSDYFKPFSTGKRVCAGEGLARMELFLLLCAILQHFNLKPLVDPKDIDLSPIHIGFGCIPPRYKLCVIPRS
Protocol: All determinations were performed in duplicate.

[3] = biological target: T2, CYP2C9 (Homo sapiens, UniProt P11712); assay: CYP2C9 inhibition assay (substrate MFC); format: in vitro ADME
T2 construct: purchased Gentest Corp; host or cells: insect cells (baculovirus)
T2 sequence (P11712 whole entry): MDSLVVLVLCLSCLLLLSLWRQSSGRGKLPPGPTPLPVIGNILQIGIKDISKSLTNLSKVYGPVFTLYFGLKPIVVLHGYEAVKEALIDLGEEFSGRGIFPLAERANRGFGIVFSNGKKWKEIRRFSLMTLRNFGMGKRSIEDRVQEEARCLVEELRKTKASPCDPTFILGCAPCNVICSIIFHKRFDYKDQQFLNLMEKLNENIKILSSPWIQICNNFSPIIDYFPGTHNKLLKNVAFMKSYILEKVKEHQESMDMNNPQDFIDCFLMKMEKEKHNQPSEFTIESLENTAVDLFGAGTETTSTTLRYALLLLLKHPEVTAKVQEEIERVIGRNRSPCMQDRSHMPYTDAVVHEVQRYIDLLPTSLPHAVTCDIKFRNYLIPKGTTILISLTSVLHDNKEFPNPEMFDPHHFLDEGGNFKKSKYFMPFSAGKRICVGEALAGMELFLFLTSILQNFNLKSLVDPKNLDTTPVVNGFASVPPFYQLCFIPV
Protocol: […]. […] All determinations were performed in duplicate.

[4] = biological target: CYP2D6 (Homo sapiens, UniProt P10635); assay: CYP2D6 inhibition assay (substrate AMMC)
Chain of CYP2D6 (P10635 whole entry): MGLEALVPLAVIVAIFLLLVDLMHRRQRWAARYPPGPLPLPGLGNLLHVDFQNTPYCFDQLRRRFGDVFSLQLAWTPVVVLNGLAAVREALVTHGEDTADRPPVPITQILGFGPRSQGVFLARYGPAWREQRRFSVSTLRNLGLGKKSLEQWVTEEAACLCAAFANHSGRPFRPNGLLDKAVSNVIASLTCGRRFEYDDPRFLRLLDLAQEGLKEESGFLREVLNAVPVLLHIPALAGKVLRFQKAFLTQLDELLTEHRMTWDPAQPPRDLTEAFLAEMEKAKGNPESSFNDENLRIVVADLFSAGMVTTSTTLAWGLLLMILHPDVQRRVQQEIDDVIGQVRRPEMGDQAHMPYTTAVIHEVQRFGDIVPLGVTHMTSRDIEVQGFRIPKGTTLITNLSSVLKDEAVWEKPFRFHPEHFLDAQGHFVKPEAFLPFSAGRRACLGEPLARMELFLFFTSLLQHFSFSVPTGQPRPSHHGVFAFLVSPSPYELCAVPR
Source text: as §1, §2, §3

Measured: Pyridoxal 5′-phosphate IC50

Chain of CYP1A2 (P05177 whole entry): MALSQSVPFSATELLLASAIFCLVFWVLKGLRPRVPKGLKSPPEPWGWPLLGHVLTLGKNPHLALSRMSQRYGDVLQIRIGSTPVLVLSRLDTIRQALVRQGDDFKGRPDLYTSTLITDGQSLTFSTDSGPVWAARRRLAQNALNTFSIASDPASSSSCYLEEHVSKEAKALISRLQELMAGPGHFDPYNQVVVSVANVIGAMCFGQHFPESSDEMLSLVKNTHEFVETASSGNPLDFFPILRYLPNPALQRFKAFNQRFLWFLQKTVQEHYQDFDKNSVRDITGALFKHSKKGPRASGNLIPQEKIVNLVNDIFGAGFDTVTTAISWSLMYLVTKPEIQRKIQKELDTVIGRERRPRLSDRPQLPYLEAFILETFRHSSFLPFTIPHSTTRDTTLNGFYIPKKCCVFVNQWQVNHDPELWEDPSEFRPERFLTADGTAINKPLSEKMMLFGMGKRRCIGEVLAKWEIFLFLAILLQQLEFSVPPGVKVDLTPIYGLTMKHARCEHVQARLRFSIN

Cc1ncc(COP(=O)(O)O)c(C=O)c1O [P5P, pyridoxal-5-phosphate]
did not inhibit: all assays above
